Non-standard residues stand in square brackets, D forms with d. Residues, ends and D or L forms follow the SMILES beside them. *: point of attachment. Trp(1-Me) = Cn1cc(C[C@H](N)C(=O)O)c2ccccc21; Phe(4-Cl) = N[C@@H](Cc1ccc(Cl)cc1)C(=O)O; αMeW = C[C@](N)(Cc1c[nH]c2ccccc12)C(=O)O; 2Nal = N[C@@H](Cc1ccc2ccccc2c1)C(=O)O; Fmoc = O=C(OCC1c2ccccc2-c2ccccc21)*; Adoc = O=C(OC12CC3CC(CC(C3)C1)C2)*; Boc = CC(C)(C)OC(=O)*
Experiments:
[1] = biological target: T1, cholecystokinin receptors (Cavia porcellus, UniProt Q63931); test: CCK-antagonist activity in isolated guinea-pig gall-bladder strip preparations; assay type: cell-based; conditions: guinea-pig gall-bladder strips; CCK-8 as agonist; test compound incubated for 60 minutes; standard errors less than 5%
T1 construct: Isolated, strip preparations were prepared from gall-bladders removed from male Dunkin-Hartley guinea-pigs; from tissue; host or cells: guinea-pig gall-bladder strips
T1 sequence (Q63931 1-430): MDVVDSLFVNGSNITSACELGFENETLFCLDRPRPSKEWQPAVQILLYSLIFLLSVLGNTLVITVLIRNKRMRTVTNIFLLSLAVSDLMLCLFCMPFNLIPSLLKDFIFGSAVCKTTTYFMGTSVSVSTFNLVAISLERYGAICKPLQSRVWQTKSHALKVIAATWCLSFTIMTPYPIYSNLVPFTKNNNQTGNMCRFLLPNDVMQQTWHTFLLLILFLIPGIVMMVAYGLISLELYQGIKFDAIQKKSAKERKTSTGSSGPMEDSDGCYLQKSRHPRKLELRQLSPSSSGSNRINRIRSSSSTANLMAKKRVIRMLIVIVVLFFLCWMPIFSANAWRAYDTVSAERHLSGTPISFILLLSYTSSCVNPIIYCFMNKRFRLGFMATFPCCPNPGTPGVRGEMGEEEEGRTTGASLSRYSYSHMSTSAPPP
Experimental: The compounds of the invention were also assayed for CCK-antagonist activity as follows:
Isolated, strip preparations were prepared from gall-bladders removed from male Dunkin-Hartley guinea-pigs (250-500 g body weight) according to the method of La Morte, W. W., et al., J.P.E.T., 217, (3), 638-644 (1981).
The complete gall-bladder is removed and opened along the longitudinal axis. Strips measuring 3 mm in the longitudinal axis and 1 mm in the transverse axis are cut and then tied with cotton to stainless steel wires. The preparation is connected to a GRASS FTO3 isometric transducer under an initial loading tension of 1 g and is immersed in 20 mls of Krebs solution maintained at 37° C. and gassed with 95% O2 /5% CO2. The Krebs solution is as detailed above in connection with the fundus assay, except that the Ca^2+ concentration is decreased to 0.5 mM. After 30 mins the preparation is washed. Drug addition begins after an initial 90 min stabilisation period. Responses are measured as changes in tension from that immediately prior to any drug addition. Single cumulative agonist concentration-effect curves, using CCK-8 as agonist, are obtained on each preparation in the absence and presence of test compound which has been incubated for 60 minutes. The antagonist activity of the test compound is estimated and expressed as the negative logarithm (base 10) of the equilibrium dissociation constants (pK8) using the modifications of standard competitive analysis described by Black et al., Br. J. Pharmacol.,86,571-579, (1985) and Shankley et al., Br. J. Pharmacol.,94,264-274 (1988).

gastrin receptor = biological target: T2, gastrin receptor (Mus musculus, UniProt P56481); test: mouse stomach assay for gastrin activity (isolated stomach, acid secretion); assay type: cell-based; conditions: for Acid seretion at 10^-5 M test compound, relative to pentagastrin (%): mouse stomach, NS = not significant
T2 construct: assayed for gastrin activity using the mouse stomach assay; from tissue; host or cells: isolated mouse stomach
T2 sequence (P56481 1-453): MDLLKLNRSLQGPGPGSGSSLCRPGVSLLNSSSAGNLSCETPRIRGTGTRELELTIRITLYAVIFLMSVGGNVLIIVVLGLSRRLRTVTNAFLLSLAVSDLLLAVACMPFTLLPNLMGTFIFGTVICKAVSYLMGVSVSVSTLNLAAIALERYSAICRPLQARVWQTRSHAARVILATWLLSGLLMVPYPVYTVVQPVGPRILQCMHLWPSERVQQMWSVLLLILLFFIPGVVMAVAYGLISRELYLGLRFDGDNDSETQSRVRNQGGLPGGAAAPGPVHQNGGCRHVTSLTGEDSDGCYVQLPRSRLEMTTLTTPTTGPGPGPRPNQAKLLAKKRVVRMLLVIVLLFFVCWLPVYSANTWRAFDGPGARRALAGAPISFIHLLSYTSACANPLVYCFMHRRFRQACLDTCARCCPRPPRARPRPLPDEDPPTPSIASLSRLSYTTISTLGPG
Experimental: The compounds were assayed for gastrin activity using the mouse stomach assay as described by Black, J. W. and Shankley, N. P., Br. J. Pharmacol., 86, 571-579, (1985), and also in the guinea-pig fundus assay, as follows: […]

[2] = isolated mouse stomach assay, gastrin antagonism, standard errors less than 5%

| Compound | Acid seretion at 10^-5 M test compound, relative to pentagastrin (%) (gastrin receptor) | pKB [1] | further results |
| --- | --- | --- | --- |
| CC(C)(C)OC(=O)N[C@H](Cc1c[nH]c2ccccc12)C(=O)N[C@@H](Cc1ccc2ccccc2c1)C(=O)N[C@@H](CC(=O)O)C(=O)N[C@@H](Cc1ccccc1)C(N)=O [Example 22, N-t-Butyloxycarbonyl-D-tryptophyl-L-3-(2-naphthyl)alanyl-L-aspartyl-L-phenylalaninamide] (Boc-[dW][2Nal]DF-NH2) |  |  | Kb [1]: 631 nM |
| N-t-benzyloxycarbonyl-β-alanyl-L-tryptophyl-L-3-(2-naphthyl)alanyl-L- aspartyl-L-phenylalaninamide [Example 23] | 40 | 5.9 | pKB mouse stomach (gastrin receptor; [2]): 5.5 |
| COc1ccc(CCNC(=O)[C@H](CC(=O)O)NC(=O)[C@H](Cc2ccc3ccccc3c2)NC(=O)[C@H](Cc2c[nH]c3ccccc23)NC(=O)OC23CC4CC(CC(C4)C2)C3)cc1 [Example 14, N-1-Adamantyloxycarbonyl-L-tryptophyl-L-3-(2-naphthyl)alanyl-L-aspartyl-4-methoxyphenethylamide] |  | 6.0 |  |
| NC(=O)[C@H](Cc1ccccc1)NC(=O)[C@H](CC(=O)O)NC(=O)[C@H](Cc1ccc2ccccc2c1)NC(=O)Cc1c[nH]c2ccccc12 [Example 20, Indole-3-acetamido-L-3-(2-naphthyl)alanyl-L-aspartyl-L-phenylalaninamide] | 33 | 6.7 | pKB mouse stomach (gastrin receptor; [2]): 6.2 |
| CNC(=O)[C@H](Cc1ccccc1)NC(=O)[C@H](CC(=O)O)NC(=O)[C@H](Cc1ccc2ccccc2c1)NC(=O)[C@H](Cc1c[nH]c2ccccc12)NC(=O)OC(C)(C)C [Example 5, N-t-Butyloxycarbonyl-L-tryptophyl-L-3-(2-naphthyl)alanyl-L-aspartyl-L-phenylalanyl-(N-methyl)amide] (Boc-W[2Nal]DF-NHMe) | 23 | 5.4 | pKB mouse stomach (gastrin receptor; [2]): 5.6 |
| CC(C)(C)OC(=O)N[C@@](C)(Cc1c[nH]c2ccccc12)C(=O)N[C@@H](Cc1ccc2ccccc2c1)C(=O)N[C@@H](CC(=O)O)C(=O)N[C@@H](Cc1ccccc1)C(N)=O [Example 17, N-t-Butyloxycarbonyl-a-methyl-tryptophyl-L-3-(2-naphthyl)alanyl-L-aspartyl-L-phenylalaninamide] (Boc-[αMeW][2Nal]DF-NH2) | 44 | 5.5 | pKB mouse stomach (gastrin receptor; [2]): 5.9 |
| N-t-Butyloxycarbonyl-L-tryptophyl-L-3-(2-naphthyl)alanyl-L-aspartyl-2,4-dichlorophenethylamide [Example 37] |  | 6.4 |  |
| NC(=O)[C@H](Cc1ccccc1)NC(=O)[C@H](CC(=O)O)NC(=O)[C@H](Cc1ccc2ccccc2c1)NC(=O)[C@H](Cc1c[nH]c2ccccc12)NC(=O)OC12CC3CC(CC(C3)C1)C2 [Example 13, N-1-Adamantyloxycarbonyl-L-tryptophyl-L-3-(2-naphthyl)alanyl-L-aspartyl-L-phenylalaninamide] (Adoc-W[2Nal]DF-NH2) |  |  | Kb [1]: 1260 nM |
| CC(C)(C)OC(=O)N[C@@H](Cc1c[nH]c2ccccc12)C(=O)N[C@@H](Cc1ccc2ccccc2c1)C(=O)N[C@@H](CC(=O)O)C(=O)NCCc1ccc(C(F)(F)F)cc1 [Example 28, N-t-Butyloxycarbonyl-L-tryptophyl-L-3-(2-naphthyl)alanyl-L-aspartyl-4-trifluoromethylphenethylamide] |  | 6.4 |  |
| CC(C)(C)OC(=O)N[C@@H](Cc1c[nH]c2ccccc12)C(=O)N[C@@H](Cc1ccc2ccccc2c1)C(=O)N[C@@H](CC(=O)O)C(=O)NC1Cc2ccccc2C1 [Example 53, N-t-Butyloxycarbonyl-L-tryptophyl-L-3-(2-naphthyl)alanyl-L-aspartyl-2-indanylamide] |  | 6.6 |  |
| NC(=O)[C@H](Cc1ccccc1)NC(=O)[C@H](CC(=O)O)NC(=O)[C@H](Cc1ccc2ccccc2c1)NC(=O)CCc1c[nH]c2ccccc12 [Example 21, Indole-3-propionamido-L-3-(2-naphthyl)alanyl-L-aspartyl-L-phenylalaninamide] |  | 6.2 |  |

More lines, main results first:

| Acid seretion at 10^-5 M test compound, relative to pentagastrin (%) (gastrin receptor) | pKB [1] | Compound | further results |
| --- | --- | --- | --- |
|  | 5.8 | CC(C)(C)OC(=O)N[C@@H](Cc1c[nH]c2ccccc12)C(=O)N[C@@H](Cc1ccc2ccccc2c1)C(=O)N[C@@H](CC(=O)O)C(=O)NCC12CC3CC(CC(C3)C1)C2 [Example 35, N-t-Butyloxycarbonyl-L-tryptophyl-L-3-(2-naphthyl)alanyl-L-aspartyl-1-adamantylmethylamide] |  |
| 67 |  | NC(=O)[C@H](Cc1ccccc1)NC(=O)[C@H](CC(=O)O)NC(=O)[C@H](Cc1ccc2ccccc2c1)NC(=O)[C@H](Cc1c[nH]c2ccccc12)NC(=O)OCC1c2ccccc2-c2ccccc21 [Example 16, N-9-Fluorenylmethoxycarbonyl-L-tryptophyl-L-3-(2-naphthyl)alanyl-L-aspartyl-L-phenylalaninamide] (Fmoc-W[2Nal]DF-NH2) | Kb (gastrin receptor; isolated mouse stomach assay, gastrin antagonism, standard errors less than 5%, read-out: pKB mouse stomach (converted)): 2000 nM; Kb [1]: 2510 nM |
| 60 | 5.9 | CC(C)(C)OC(=O)N[C@@H](Cc1c[nH]c2ccccc12)C(=O)N[C@@H](Cc1ccc2ccccc2c1)C(=O)N[C@@H](CC(=O)O)C(=O)N[C@@H](Cc1ccc(Cl)cc1)C(N)=O [Example 11, N-t-Butyloxycarbonyl-L-tryptophyl-L-3-(2-naphthyl)alanyl-L-aspartyl-L-(4-chlorophenylalanin)amide] (Boc-W[2Nal]D[Phe(4-Cl)]-NH2) | pKB mouse stomach (gastrin receptor; [2]): 6.6 |
|  | 6.4 | COc1cc(OC)c(CCNC(=O)[C@H](CC(=O)O)NC(=O)[C@H](Cc2ccc3ccccc3c2)NC(=O)[C@H](Cc2c[nH]c3ccccc23)NC(=O)OC(C)(C)C)c(OC)c1 [Example 55, N-t-Butyloxycarbonyl-L-tryptophyl-L-3-(2-naphthyl)alanyl-L-aspartyl-2,4,6-trimethoxyphenethylamide] |  |
|  | 6.5 | CC(C)(C)OC(=O)N[C@@H](Cc1c[nH]c2ccccc12)C(=O)N[C@@H](Cc1ccc2ccccc2c1)C(=O)N[C@@H](CC(=O)O)C(=O)NCCc1ccc2c(c1)CCCC2 [Example 43, N-t-Butyloxycarbonyl-L-tryptophyl-L-3-(2-naphthyl)alanyl-L-aspartyl-2-(5,6,7,8-tetrahydronaphthyl)ethylamide] |  |
|  | 6.1 | CC(C)(C)OC(=O)N[C@@H](Cc1c[nH]c2ccccc12)C(=O)N[C@@H](Cc1ccc2ccccc2c1)C(=O)N[C@@H](CC(=O)O)C(=O)NCCc1cccc(C(F)(F)F)c1 [Example 50, N-t-Butyloxycarbonyl-L-tryptophyl-L-3-(2-naphthyl)alanyl-L-aspartyl-3-trifluoromethylphenethylamide] |  |
|  | 6.1 | Cn1cc(C[C@H](NC(=O)OC(C)(C)C)C(=O)N[C@@H](Cc2ccc3ccccc3c2)C(=O)N[C@@H](CC(=O)O)C(=O)N[C@@H](Cc2ccccc2)C(N)=O)c2ccccc21 [Example 45, N-t-Butyloxycarbonyl-L-N^in-methyltryptophyl-L-3-(2-naphthyl)alanyl-L-aspartyl-L-phenylalaninamide] (Boc-[Trp(1-Me)][2Nal]DF-NH2) |  |
